According to US20210330611A1, “THERAPY FOR NEUROLOGICAL DISEASES/DISORDERS” (priority 2020, published 2021):
Values joined by “and” are separate entries in the source; they are usually repeats but may differ in a detail not shown here. Identical values can stand only once. Like-named read-outs stand apart in the source and are kept apart here.

Legend:
[1] = system: fibrin-induced microglia activation; experiment: Image-based assay of fibrin-induced microglia activation (HTS and dose response); type: cell-based, rat; conditions: for inhibition at 10 µM: Rattus norvegicus, Microglia, read-out: Fibrin % inhibition
[2] = system: LPS-induced microglia activation; experiment: Image-based assay of LPS-induced microglia activation (HTS and dose response); type: cell-based, rat; conditions: for inhibition at 10 µM: Rattus norvegicus, Microglia, read-out: LPS % inhibition
[3] = system: fibrin- and LPS-induced microglia activation; experiment: cells; type: cell-based, rat
primary rat microglia [4] = system: primary rat microglia
primary rat microglia [5] = conditions: rat
primary rat microglia [6] = experiment: Cell toxicity (dead cells, size <150 μm2) in LPS assay
primary rat microglia [7] = experiment: Cell toxicity (dead cells, size <150 μm2) in coated fibrin (cFib) assay;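 note: share of dead cells sized under 150 µm2 at 10 µM in fibrin-stimulated microglia HTS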
[8] = primary microglia HTS, fibrin stimulation, compounds at 10 μM
[9] = primary microglia HTS, LPS stimulation, compounds at 10 μM
[10] = classification by fibrin and LPS inhibition, HTS at 10 μM
[11] = primary microglia HTS, LPS stimulation, compounds at 10 μM, 10 µM
[12] = quadrant by fibrin and LPS inhibition in HTS of 1907 compounds
[13] = primary HTS, 10 μM, LPS-stimulated primary microglia
[14] = primary microglia HTS, fibrin stimulation, increased cell size (>800 μm^2) as marker of activation
[15] = 48 h, primary microglia HTS, LPS stimulation, increased cell size (>800 μm^2) as marker of activation
[16] = primary microglia HTS, LPS stimulation, decreased size (<150 μm^2) as marker of toxicity

CC1(C)S[C@@H]2[C@H](NC(=O)[C@H](N)c3ccc(O)cc3)C(=O)N2[C@H]1C(=O)O [Amoxicillin]
inhibition at 10 µM [1]: -14%
inhibition at 10 µM [2]: 12%
Quadrant (FIG. 5b) [3]: Q4
Fibrin % cell toxicity (primary rat microglia [4]; rat): 0%

Cn1c(=O)c2c(ncn2CC2OCCO2)n(C)c1=O [Doxofylline]
inhibition at 10 µM [1, 8]: -42%
inhibition at 10 µM [2, 9]: 18%
Quadrant (FIG. 5b) [3, 10]: Q4
Fibrin % cell toxicity (primary rat microglia [4]; rat): 0%

C=C1C[C@@H]2[C@H](CC[C@]3(C)C(=O)CC[C@@H]23)[C@@]2(C)C=CC(=O)C=C12 [Exemestane]
inhibition at 10 µM [1, 8]: 22%
Fibrin % inhibition ([1]; primary microglia HTS, fibrin stimulation, compounds at 10 μM, 10 µM): 31%
inhibition at 10 µM [2, 9]: 21%
LPS % inhibition [2, 11]: 34%
Quadrant (FIG. 5b) [3, 10]: Q4
Fibrin % cell toxicity (primary rat microglia [4]; rat): 1%

C#C[C@]1(O)CC[C@H]2[C@@H]3CCC4=CC(=O)CC[C@@H]4[C@H]3CC[C@@]21C [Norethindrone]
inhibition at 10 µM [1]: 9%
LPS % inhibition [2]: 15%
Quadrant (FIG. 5b) [3]: Q4
Fibrin % cell toxicity (primary rat microglia [4]; rat): 0%

CCC(C)n1ncn(-c2ccc(N3CCN(c4ccc(OCC5COC(Cn6cncn6)(c6ccc(Cl)cc6Cl)O5)cc4)CC3)cc2)c1=O (stereo not drawn) [Itraconazole]
Quadrant (FIG. 5b) [3, 12]: Q4
Fibrin % cell toxicity (primary rat microglia [4]; rat): 1%

Nc1nc(Cl)nc2c1ncn2[C@@H]1O[C@H](CO)[C@@H](O)[C@@H]1F [Clofarabine]
LPS % inhibition [2, 13]: −2% and 8%
Quadrant (FIG. 5b) ([3]; primary HTS, 10 μM): Q4
Fibrin % cell toxicity (primary rat microglia [4]; rat): 1%

CCCCCCCCCCC[C@@H](C[C@@H]1OC(=O)[C@H]1CCCCCC)OC(=O)[C@H](CC(C)C)NC=O [Orlistat]
inhibition at 10 µM [1, 14]: 17%
Quadrant (FIG. 5b) [3, 12]: Q4
Fibrin % cell toxicity (primary rat microglia [4]; rat): 1%

O=C(O)CN(CCN(CC(=O)O)CC(=O)O)CC(=O)O [Edetic Acid]
Quadrant (FIG. 5b) [3]: Q4
Fibrin % cell toxicity (primary rat microglia [4]; rat): 0%

C[C@]12CC[C@@H]3c4ccc(O)cc4CC[C@H]3[C@@H]1CCC2=O [Estrone]
inhibition at 10 µM [1, 8]: 35%
inhibition at 10 µM [1, 14]: 106%
inhibition at 10 µM [2, 15]: 106%
inhibition at 10 µM [2, 9]: 16%
Quadrant (FIG. 5b) [3, 10]: Q4
Quadrant (FIG. 5b) [3, 12]: Q2
LPS % cell toxicity (primary rat microglia [5]): 0%
LPS % cell toxicity (primary rat microglia [6]; [16]): 25%

C#C[C@]1(O)CC[C@H]2[C@@H]3CCC4=Cc5oncc5C[C@]4(C)[C@H]3CC[C@@]21C [Danazol]
inhibition at 10 µM [1, 8]: -14%
inhibition at 10 µM [1, 14]: 105%
inhibition at 10 µM [2, 15]: 99%
inhibition at 10 µM [2, 9]: 5%
Quadrant (FIG. 5b) [3, 10]: Q4
Quadrant (FIG. 5b) [3, 12]: Q2
LPS % cell toxicity (primary rat microglia [5]): 0%
LPS % cell toxicity (primary rat microglia [6]; [16]): 14%
Fibrin % cell toxicity (primary rat microglia [7]; primary microglia HTS, fibrin assay, dead cells (size <150 μm2), compounds at 10 μM): 1%
Fibrin % cell toxicity (primary rat microglia [7]; primary microglia HTS, fibrin stimulation, decreased size (<150 μm^2) as marker of toxicity): 28%

CN(Cc1cnc2nc(N)nc(N)c2n1)c1ccc(C(=O)N[C@@H](CCC(=O)O)C(=O)O)cc1 (racemic) [Methotrexate(+/−)]
Fibrin % inhibition [1, 14]: 0%
LPS % inhibition ([2]; primary microglia HTS, LPS stimulation, increased cell size (>800 μm^2) as marker of activation): 0%
Fibrin % cell toxicity (primary rat microglia [4]): 0%

Clc1ccc(C(Cn2ccnc2)OCc2ccsc2Cl)c(Cl)c1 (stereo not drawn) [Tioconazole]
LPS % inhibition ([2]; 10 µM): 8%
inhibition at 10 µM [2]: 12%
Quadrant (FIG. 5b) [3]: Q4
Fibrin % cell toxicity (primary rat microglia [4]; rat): 1%

CC(=O)O[C@]1(C(C)=O)CC[C@H]2[C@@H]3C=C(Cl)C4=CC(=O)[C@@H]5C[C@@H]5[C@]4(C)[C@H]3CC[C@@]21C [Cyproterone Acetate]
LPS % inhibition [2, 11]: 12% and 3%
Quadrant (FIG. 5b) [3, 10]: Q4
Fibrin % cell toxicity (primary rat microglia [4]; rat): 1%

O=c1[nH]c(=O)n([C@H]2C[C@H](O)[C@@H](CO)O2)cc1I [Idoxuridine]
Quadrant (FIG. 5b) [3, 12]: Q4
Fibrin % cell toxicity (primary rat microglia [4]; rat): 1%

C[N+]12CCC(CC1)C(OC(=O)C(O)(c1ccccc1)c1ccccc1)C2 (stereo not drawn) [Clidinium Bromide]
inhibition at 10 µM ([1]; primary HTS, 10 μM, fibrin-stimulated primary microglia): -20%
inhibition at 10 µM [2, 13]: 9%
Quadrant (FIG. 5b) ([3]; primary HTS, 10 μM): Q4
LPS % cell toxicity (primary rat microglia [6]; primary HTS, 10 μM, LPS assay, dead cells size <150 μm2): 0%
Fibrin % cell toxicity (primary rat microglia [7]; primary HTS, 10 μM, fibrin assay, dead cells size <150 μm2): 1%
